Results reported in publication PMC3605789 (Nature communications, 2013).
pIC50: −log10 of the molar value.

Target: T1, inositol monophosphatase (IMPase) (Homo sapiens, UniProt P29218)
T1 sequence (P29218 1-277): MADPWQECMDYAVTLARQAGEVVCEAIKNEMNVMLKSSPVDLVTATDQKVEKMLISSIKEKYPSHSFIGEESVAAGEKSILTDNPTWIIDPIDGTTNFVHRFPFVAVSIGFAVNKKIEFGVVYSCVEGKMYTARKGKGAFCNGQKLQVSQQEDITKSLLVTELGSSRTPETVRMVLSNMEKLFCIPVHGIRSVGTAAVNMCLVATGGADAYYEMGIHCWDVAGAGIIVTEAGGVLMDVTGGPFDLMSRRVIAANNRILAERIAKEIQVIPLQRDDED
Test: electrospray mass spectrometry of the covalent complex
Assay type: biochemical

O=c1c2ccccc2[se]n1-c1ccccc1 [ebselen]
pIC50: 5.82
